How the values were obtained:
[1] = Aqueous solubility of raw material
Description: The tiagabine employed in the following examples is the monohydrate crystalline form for the hydrochloride salt of the R isomer.

[2] = cited from earlier work
[3] = four hours after ingestion, deliberate overdose; cited from earlier work

| aqueous solubility [1] | Compound | half-life ([2]; in humans) [h] | elimination half-life ([2]; lowered by enzyme inducers) [h] | Plasma levels [3] [ng/mL] | plasma level relative to typical steady state therapeutic dosing levels [3] [times] |
| --- | --- | --- | --- | --- | --- |
| high | Cc1ccsc1C(=CCCN1CCCC(C(=O)O)C1)c1sccc1C.Cl (centres unmarked) [tiagabine hydrochloride monohydrate, N-(4,4-di(3-methylthien-2-yl)but-3-enyl) nipecotic acid hydrochloride] | – | – | – | – |
| – | Cc1ccsc1C(=CCCN1CCCC(C(=O)O)C1)c1sccc1C (centres unmarked) [tiagabine, N-(4,4-di(3-methylthien-2-yl)but-3-enyl) nipecotic acid] | 5 to 8 | 2 to 3 | 3100 | 30 |

— US6399100B1, “Controlled release pharmaceutical compositions containing tiagabine” (Elan Corporation, plc, priority 1997, dated 2002)
